Assay results from patent publication US10413583B2, “Synthetic substrates for enzymes that catalyze reactions of modified cysteines and related methods” (The University of Chicago, priority 2016, dated 2019).

Experiments:
human colon organoids = assay: Epifluorescent imaging of RDP-2 with human colon organoids; type: cell-based; details: 40 μM inhibitor 30 min, 5 μM RDP-2
Protocol: At least 24 h before imaging experiments, cultured colon organoids were split using a 25G needle and 1 mL syringe, pelleted, and 50-100 organoids per well were re-plated in eight-well chambered slides (20 μL droplets/well; 250 μL organoid growth media; Cellvis, Mountain View, Calif., United States of America) for treatment and imaging. 30 min before the addition of RDP-2, the cell culture media was removed and cells were washed with 300 μL of serum-free FluoroBrite DMEM (Gibco, Gaithersburg, Md., United States of America; High Glucose, Glutamax, no FBS). […] After incubation for 10 min at 37° C. and 5% CO2, the cells were washed with 300 μL Live Cell Imaging Solution and 300 μL of Live Cell Imaging Solution containing DMSO or the appropriate inhibitor was added to the cells immediately before images were obtained on an inverted epi-fluorescence microscope (Olympus IX83; Olympus Corporation, Tokyo, Japan) attached with EMCCD camera (Photometrics EVOLVE™ Delta, Photometrics, Tucson, Ariz., United States of America) with 40× oil objective (N/A 1.3) for RDP-2 (excitation filter 1 430/24 nm, dichroic chroma 89007, emission filter 1 470/24 nm, exposure time 150 ms, EM gain 100, excitation filter 2 480/20 nm, dichroic chroma 49014, emission filter 2 575/40 nm, exposure time 75 ms, EM gain 75), brightfield (exposure time 50 ms, EM gain 30). […]

MDA-MB-231 cells = assay: Flow cytometry of DPP-3 in MDA-MB-231 cells; type: cell-based, human; details: MDA-MF-231 as printed; 1 μM inhibitor; 5 μM DPP-3, 5 min
Protocol: (§1) Cells were plated on a 10 cm dish with 10 mL of DMEM/High Glucose (10% FBS, 1% P/S, L-Glutamine, Sodium pyruvate) 36-48 hours prior to the day of experiment and maintained at 37° C., 5% CO2 so as to obtain 80-90% confluency. Cells were washed with DPBS and trypsinized with 1 mL 0.05% Trypsin. 5 mL of DMEM/High Glucose (10% FBS, L-Glutamine, Sodium pyruvate) was added and cells were spun down at 1200 rpm for 3 min. Media was discarded and cells were resuspended in 5 mL of Live Cell Imaging Solution and again spun down at 1200 rpm for 3 min. The cells pellets obtained were resuspended in 3-5 mL of Live Cell Imaging Solution and divided into 500 μL aliquots. The aliquots were treated with either 0.2% DMSO carrier or 1 μM of PalmB/ML348 or 1 μM/5 μM of ML349 inhibitor. After 30 min of incubation at room temperature, 1 μL of 2.5 mM DPP-3 in DMSO was added to each aliquot for a final concentration of 5 μM, and the solutions were mixed. After 5 min incubation at room temperature, fluorescence signal in FITC channel was measured for 10000 cells (5000 for HeLa experiments) on a LSR-Fortessa 4-15 HTS (BD digital instrument, 488 nm laser with 530/30 nm filter for FITC; BD, Franklin Lakes, N.J., United States of America). For analyzing DPP2 in HEK293T cells, the aliquots were treated with either 0.2% DMSO carrier or 2 μM of PalmB, 5 or 20 μM of ML348/ML349 and then analyzed by the protocol as mentioned above. Data was analyzed by FlowJo software version 10.0.8. For comparison of A431 starved versus non-starved, parallel 10 cm dishes of A431 cells were plated in 10 mL of DMEM (high glucose, 10% FBS, 1% P/S), and grown for 36 h. The growth media was removed, and replaced by 10 mL of either DMEM (High glucose) with 10% FBS to maintain “growth” conditions, or DMEM (High glucose) without FBS respectively for “starvation” conditions, and incubated for 14 h. After trypsinization, both plates were treated with 5 mL of DMEM (high glucose) for spinning the cells down, and further processing and analysis were performed as described above by flow cytometry.

MCF-7 cells = assay: Flow cytometry of DPP-3 in MCF-7 cells; type: cell-based, human; details: 1 μM inhibitor, 5 μM DPP-3, 5 min
Protocol: as §1

APT1 = molecular target: T1, APT1 (Homo sapiens, UniProt O75608); assay: In vitro kinetic assays and emission spectra of DPP-1, DPP-4, DPP-5 with APT1 (no detergent); type: biochemical
T1 construct: His-tag; made in house; host or cells: E. coli ROSETTA DE3
T1 sequence (O75608 whole entry): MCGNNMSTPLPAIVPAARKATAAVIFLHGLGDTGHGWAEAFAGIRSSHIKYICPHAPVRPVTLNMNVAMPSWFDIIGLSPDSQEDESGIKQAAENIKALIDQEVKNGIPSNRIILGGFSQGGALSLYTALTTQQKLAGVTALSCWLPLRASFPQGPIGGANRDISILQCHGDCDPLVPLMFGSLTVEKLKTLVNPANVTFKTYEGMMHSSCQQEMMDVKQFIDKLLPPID
Protocol: (§2) 150 μL of 2 μM DPP-1, DPP4 or DPP-5 in HEPES (20 mM, pH=7.4, 150 mM NaCl) were added to a 96-well optical bottom plate (Nunc 265301, Fisher Scientific, Pittsburgh, Pa., United States of America) at room temperature. 150 μL of either HEPES buffer alone or HEPES buffer containing 100 nM APT1 or APT2 (purification using previous methods), was added using a multi-channel pipette, resulting in a final concentration of 1 μM DPP-1/DPP4/DPP-5 and 50 nM APT1 or APT2. Fluorescence intensities (λex 490/20 nm, λem 545/20 nm, Gain 80, read from bottom with height 4.5 mm, and sweep method) were measured at 15 s time intervals for 30 min at 37° C. Following the 30 min kinetic run, emission spectra were obtained (λex 480/20 nm, Aem515-700 nm, Gain 80, read from bottom with height 4.5 mm, and sweep method).

[1] = Water solubility of probes (stated in words); type: physicochemical
APT2 = molecular target: T2, APT2 (Homo sapiens, UniProt O95372); assay: In vitro kinetic assays and emission spectra of DPP-1, DPP-4, DPP-5 with APT2 (no detergent); type: biochemical
T2 construct: His-tag; made in house; host or cells: E. coli ROSETTA DE3
T2 sequence (O95372 whole entry): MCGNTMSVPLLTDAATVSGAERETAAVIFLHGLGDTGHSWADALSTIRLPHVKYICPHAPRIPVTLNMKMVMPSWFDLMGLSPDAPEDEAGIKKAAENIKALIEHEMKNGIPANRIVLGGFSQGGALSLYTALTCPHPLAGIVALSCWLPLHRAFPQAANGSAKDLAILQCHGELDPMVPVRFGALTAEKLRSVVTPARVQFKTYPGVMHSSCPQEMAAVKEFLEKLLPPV
Protocol: as §2

Structure (SMILES)	inhibition / decrease of measured S-depalmitoylation, RDP-2 (human colon organoids)	effect of inhibitor on depalmitoylation signal measured by DPP-3 (MDA-MB-231 cells)	effect of inhibitor on depalmitoylation signal measured by DPP-3 (MCF-7 cells)	enhancement in intensity of fluorescence signal (APT1; 1 μM probe, 50 nM APT1, 30 minutes, absence of detergents) [fold]	in vitro kinetics (APT1; APT1, absence of detergents)	water solubility [1]	enhancement in intensity of fluorescence signal (APT2; 1 μM probe, 50 nM APT2, 30 minutes, absence of detergents) [fold]	in vitro kinetics (APT2; APT2, absence of detergents)
O=C(CN1CCN(C(=O)c2ccco2)CC1)Nc1cc(C(F)(F)F)ccc1Cl [ML348]	about 20%	knocks down the depalmitoylation signal	knocks down the depalmitoylation signal					
CCCCCCCCCC[C@@H]1C(=O)O[C@H]1CCc1ccc(OC)c(OC)c1 [PalmB, palmostatin B]	about 50%	knocks down the depalmitoylation signal	knocks down the depalmitoylation signal					
CCCCCCCCCCCCCCCC(=O)SC[C@@H](C(=O)NC)N(C)C(=O)Oc1ccc2c(c1)Oc1cc(N3CCN(C(=O)CCC(=O)O)CC3)ccc1C21OC(=O)c2ccccc21 (some centres unmarked) [DPP-5]				350	more rapid turn-on response	relatively higher water solubility	350	more rapid turn-on response
